≈ marks a conversion by molar mass, not a printed value.
Experiments:
ATCC43300 (MRSA) = test: In vitro antibacterial activity (MIC) against MRSA; assay type: cell-based, Methicillin-resistant Staphylococcus aureus; conditions: MRSA strain ATCC43300; method of Pharmacopoeia of the People's Republic of China (2015 edition)
Procedure: (§1) An antibacterial activity of the compounds in Table 1 is determined in vitro, and a minimum inhibitory concentration (MIC) is read. The determination method refers to the method of the Pharmacopoeia of the People's Republic of China (2015 edition). The MRSA detection strain is purchased from ATCC, and the VRE detection strain is from the clinically isolated drug-resistant strain 07-W3-45 from Shanghai Huashan Hospital. Known antibiotic oritavancin (phosphate) is used for a reference drug.

wild AB zebrafish = test: Zebrafish toxicity test; assay type: in vivo; conditions: intravenous injection, 72 hours of treatment, samples in phosphate form
Procedure: A zebrafish toxicity test of the compounds in Table 1 is also tested. Randomly select wild AB zebrafish in a six-well plate, and inject each test sample at a dose of 50, 100, 150, 200, and 250 ng/tail intravenously. At the same time, a normal control group and a solvent control group (aqueous phosphoric acid) are set; During this experiment, the death of zebrafish is observed and recorded every day and the dead fish are removed. After 72 hours of treatment, the death of zebrafish is counted. Calculate the LD50 of each test product to zebrafish.
All samples are tested for zebrafish toxicity in phosphate form.

[1] = tested on: Clinical isolates 07-W3-45 (VRE); test: In vitro antibacterial activity (MIC) against VRE; assay type: cell-based, Vancomycin-resistant Enterococcus; conditions: clinically isolated drug-resistant strain 07-W3-45 from Shanghai Huashan Hospital
Procedure: as §1

Row | Structure (SMILES) | MIC ATCC43300 (MRSA) (ATCC43300 (MRSA)) [µg/mL] | Zebrafish LD50 (wild AB zebrafish) [ng/tail] | MIC Clinical isolates 07-W3-45 (VRE) [1] [µg/mL]
1 | CNC(CC(C)C)C(=O)NC1C(=O)NC(CC(N)=O)C(=O)NC2C(=O)NC3C(=O)NC(C(=O)NC(C(=O)O)c4cc(O)cc(O)c4-c4cc3ccc4O)C(OC3CC(C)(N)C(O)C(C)O3)c3ccc(c(Cl)c3)Oc3cc2cc(c3OC2OC(CO)C(O)C(O)C2OC2CC(C)(NCc3ccc(OCc4ccccc4)cc3)C(O)C(C)O2)Oc2ccc(cc2Cl)C1O (stereo not drawn) [Compound 1] | 0.5 (≈ 0.28 µM) | 139 | 2 (≈ 1.12 µM)
2 | CNC(CC(C)C)C(=O)NC1C(=O)NC(CC(N)=O)C(=O)NC2C(=O)NC3C(=O)NC(C(=O)NC(C(=O)O)c4cc(O)cc(O)c4-c4cc3ccc4O)C(OC3CC(C)(N)C(O)C(C)O3)c3ccc(c(Cl)c3)Oc3cc2cc(c3OC2OC(CO)C(O)C(O)C2OC2CC(C)(NCc3ccc(OCCc4ccccc4)cc3)C(O)C(C)O2)Oc2ccc(cc2Cl)C1O (stereo not drawn) [Compound 2] | 0.5 (≈ 0.277 µM) | 163 | 2 (≈ 1.11 µM)
3 | CNC(CC(C)C)C(=O)NC1C(=O)NC(CC(N)=O)C(=O)NC2C(=O)NC3C(=O)NC(C(=O)NC(C(=O)O)c4cc(O)cc(O)c4-c4cc3ccc4O)C(OC3CC(C)(N)C(O)C(C)O3)c3ccc(c(Cl)c3)Oc3cc2cc(c3OC2OC(CO)C(O)C(O)C2OC2CC(C)(NCc3ccc(OCCCc4ccccc4)cc3)C(O)C(C)O2)Oc2ccc(cc2Cl)C1O (stereo not drawn) [Compound 3] | 0.25 (≈ 0.138 µM) | 123 | 1 (≈ 0.55 µM)
4 | CNC(CC(C)C)C(=O)NC1C(=O)NC(CC(N)=O)C(=O)NC2C(=O)NC3C(=O)NC(C(=O)NC(C(=O)O)c4cc(O)cc(O)c4-c4cc3ccc4O)C(OC3CC(C)(N)C(O)C(C)O3)c3ccc(c(Cl)c3)Oc3cc2cc(c3OC2OC(CO)C(O)C(O)C2OC2CC(C)(NCc3ccc(OCc4ccc(C)cc4)cc3)C(O)C(C)O2)Oc2ccc(cc2Cl)C1O (stereo not drawn) [Compound 4] | 0.5 (≈ 0.277 µM) | 101 | 2 (≈ 1.11 µM)
5 | CNC(CC(C)C)C(=O)NC1C(=O)NC(CC(N)=O)C(=O)NC2C(=O)NC3C(=O)NC(C(=O)NC(C(=O)O)c4cc(O)cc(O)c4-c4cc3ccc4O)C(OC3CC(C)(N)C(O)C(C)O3)c3ccc(c(Cl)c3)Oc3cc2cc(c3OC2OC(CO)C(O)C(O)C2OC2CC(C)(NCc3ccc(OCc4ccc(Cl)cc4)cc3)C(O)C(C)O2)Oc2ccc(cc2Cl)C1O (stereo not drawn) [Compound 5] | 0.5 (≈ 0.274 µM) | 180 | 2 (≈ 1.1 µM)
6 | CNC(CC(C)C)C(=O)NC1C(=O)NC(CC(N)=O)C(=O)NC2C(=O)NC3C(=O)NC(C(=O)NC(C(=O)O)c4cc(O)cc(O)c4-c4cc3ccc4O)C(OC3CC(C)(N)C(O)C(C)O3)c3ccc(c(Cl)c3)Oc3cc2cc(c3OC2OC(CO)C(O)C(O)C2OC2CC(C)(NCc3ccc(OCCc4ccc(C)cc4)cc3)C(O)C(C)O2)Oc2ccc(cc2Cl)C1O (stereo not drawn) [Compound 6] | 0.25 (≈ 0.138 µM) | 121 | 8 (≈ 4.4 µM)
7 | CNC(CC(C)C)C(=O)NC1C(=O)NC(CC(N)=O)C(=O)NC2C(=O)NC3C(=O)NC(C(=O)NC(C(=O)O)c4cc(O)cc(O)c4-c4cc3ccc4O)C(OC3CC(C)(N)C(O)C(C)O3)c3ccc(c(Cl)c3)Oc3cc2cc(c3OC2OC(CO)C(O)C(O)C2OC2CC(C)(NCc3ccc(OCCc4ccc(F)cc4)cc3)C(O)C(C)O2)Oc2ccc(cc2Cl)C1O (stereo not drawn) [Compound 7] | 0.5 (≈ 0.275 µM) | 97 | 1 (≈ 0.549 µM)
8 | CNC(CC(C)C)C(=O)NC1C(=O)NC(CC(N)=O)C(=O)NC2C(=O)NC3C(=O)NC(C(=O)NC(C(=O)O)c4cc(O)cc(O)c4-c4cc3ccc4O)C(OC3CC(C)(N)C(O)C(C)O3)c3ccc(c(Cl)c3)Oc3cc2cc(c3OC2OC(CO)C(O)C(O)C2OC2CC(C)(NCc3ccc(OCCc4ccc(Cl)cc4)cc3)C(O)C(C)O2)Oc2ccc(cc2Cl)C1O (stereo not drawn) [Compound 8] | 0.5 (≈ 0.272 µM) | 150 | 1 (≈ 0.544 µM)
9 | CNC(CC(C)C)C(=O)NC1C(=O)NC(CC(N)=O)C(=O)NC2C(=O)NC3C(=O)NC(C(=O)NC(C(=O)O)c4cc(O)cc(O)c4-c4cc3ccc4O)C(OC3CC(C)(N)C(O)C(C)O3)c3ccc(c(Cl)c3)Oc3cc2cc(c3OC2OC(CO)C(O)C(O)C2OC2CC(C)(NCc3ccc(OCCc4ccc(Br)cc4)cc3)C(O)C(C)O2)Oc2ccc(cc2Cl)C1O (stereo not drawn) [Compound 9] | 0.25 (≈ 0.133 µM) | 129 | 1 (≈ 0.531 µM)
10 | CNC(CC(C)C)C(=O)NC1C(=O)NC(CC(N)=O)C(=O)NC2C(=O)NC3C(=O)NC(C(=O)NC(C(=O)O)c4cc(O)cc(O)c4-c4cc3ccc4O)C(OC3CC(C)(N)C(O)C(C)O3)c3ccc(c(Cl)c3)Oc3cc2cc(c3OC2OC(CO)C(O)C(O)C2OC2CC(C)(NCc3ccc(OCCc4cccc(Br)c4)cc3)C(O)C(C)O2)Oc2ccc(cc2Cl)C1O (stereo not drawn) [Compound 10] | 0.125 (≈ 0.0664 µM) | 113 | 1 (≈ 0.531 µM)
11 | CNC(CC(C)C)C(=O)NC1C(=O)NC(CC(N)=O)C(=O)NC2C(=O)NC3C(=O)NC(C(=O)NC(C(=O)O)c4cc(O)cc(O)c4-c4cc3ccc4O)C(OC3CC(C)(N)C(O)C(C)O3)c3ccc(c(Cl)c3)Oc3cc2cc(c3OC2OC(CO)C(O)C(O)C2OC2CC(C)(NCc3ccc(OCCc4ccc(C(F)(F)F)cc4)cc3)C(O)C(C)O2)Oc2ccc(cc2Cl)C1O (stereo not drawn) [Compound 11] | 0.064 (≈ 0.0342 µM) | 99 | 0.5 (≈ 0.267 µM)
12 | CNC(CC(C)C)C(=O)NC1C(=O)NC(CC(N)=O)C(=O)NC2C(=O)NC3C(=O)NC(C(=O)NC(C(=O)O)c4cc(O)cc(O)c4-c4cc3ccc4O)C(OC3CC(C)(N)C(O)C(C)O3)c3ccc(c(Cl)c3)Oc3cc2cc(c3OC2OC(CO)C(O)C(O)C2OC2CC(C)(NCc3ccc(OCCc4ccc(OC)cc4)cc3)C(O)C(C)O2)Oc2ccc(cc2Cl)C1O (stereo not drawn) [Compound 12] | 0.5 (≈ 0.273 µM) | 188 | 16 (≈ 8.73 µM)
13 | CNC(CC(C)C)C(=O)NC1C(=O)NC(CC(N)=O)C(=O)NC2C(=O)NC3C(=O)NC(C(=O)NC(C(=O)O)c4cc(O)cc(O)c4-c4cc3ccc4O)C(OC3CC(C)(N)C(O)C(C)O3)c3ccc(c(Cl)c3)Oc3cc2cc(c3OC2OC(CO)C(O)C(O)C2OC2CC(C)(NCc3ccc(OCCCc4ccc(Cl)cc4)cc3)C(O)C(C)O2)Oc2ccc(cc2Cl)C1O (stereo not drawn) [Compound 13] | 0.5 (≈ 0.27 µM) | 164 | 2 (≈ 1.08 µM)
14 | CNC(CC(C)C)C(=O)NC1C(=O)NC(CC(N)=O)C(=O)NC2C(=O)NC3C(=O)NC(C(=O)NC(C(=O)O)c4cc(O)cc(O)c4-c4cc3ccc4O)C(OC3CC(C)(N)C(O)C(C)O3)c3ccc(c(Cl)c3)Oc3cc2cc(c3OC2OC(CO)C(O)C(O)C2OC2CC(C)(NCc3ccc(SCc4ccccc4)cc3)C(O)C(C)O2)Oc2ccc(cc2Cl)C1O (stereo not drawn) [Compound 14] | 0.032 (≈ 0.0177 µM) | 82 | 8 (≈ 4.43 µM)
15 | CNC(CC(C)C)C(=O)NC1C(=O)NC(CC(N)=O)C(=O)NC2C(=O)NC3C(=O)NC(C(=O)NC(C(=O)O)c4cc(O)cc(O)c4-c4cc3ccc4O)C(OC3CC(C)(N)C(O)C(C)O3)c3ccc(c(Cl)c3)Oc3cc2cc(c3OC2OC(CO)C(O)C(O)C2OC2CC(C)(NCc3ccc(SCc4ccc(Cl)cc4)cc3)C(O)C(C)O2)Oc2ccc(cc2Cl)C1O (stereo not drawn) [Compound 15] | 0.032 (≈ 0.0174 µM) | 76 | 1 (≈ 0.544 µM)
16 | CNC(CC(C)C)C(=O)NC1C(=O)NC(CC(N)=O)C(=O)NC2C(=O)NC3C(=O)NC(C(=O)NC(C(=O)O)c4cc(O)cc(O)c4-c4cc3ccc4O)C(OC3CC(C)(N)C(O)C(C)O3)c3ccc(c(Cl)c3)Oc3cc2cc(c3OC2OC(CO)C(O)C(O)C2OC2CC(C)(NCc3ccc(SCCc4ccc(Cl)cc4)cc3)C(O)C(C)O2)Oc2ccc(cc2Cl)C1O (stereo not drawn) [Compound 16] | 0.032 (≈ 0.0173 µM) | 72 | 0.5 (≈ 0.27 µM)
17 | CNC(CC(C)C)C(=O)NC1C(=O)NC(CC(N)=O)C(=O)NC2C(=O)NC3C(=O)NC(C(=O)NC(C(=O)O)c4cc(O)cc(O)c4-c4cc3ccc4O)C(OC3CC(C)(N)C(O)C(C)O3)c3ccc(c(Cl)c3)Oc3cc2cc(c3OC2OC(CO)C(O)C(O)C2OC2CC(C)(NCc3ccc(NCc4ccccc4)cc3)C(O)C(C)O2)Oc2ccc(cc2Cl)C1O (stereo not drawn) [Compound 17] | 0.5 (≈ 0.28 µM) | 139 | 1 (≈ 0.559 µM)
